Laboratory results taken from patent US9334265B2, “3-amino-pyrazole derivatives useful against tuberculosis” (GLAXO GROUP LIMITED, priority 2010, dated 2016).
Converted amounts (≈) assume the structure as drawn. “And” between values parts separate entries of the source, which are not always exact repeats. Identical values can stand only once. Like-named read-outs stand apart in the source and are kept apart here.

How the values were obtained:
[1] = tested on: Mycobacterium tuberculosis H37Rv; assay: Mycobacterium tuberculosis H37Rv Inhibition Assay (Whole Cell Assay); format: cell-based; conditions: ATCC 25618 / H37Rv, H37Rv strain (ATCC25618), Middlebrook 7H9, six days at 37° C., resazurin fluorescence after 48 hours
InhA = biological target: T1, InhA (Mycobacterium tuberculosis, UniProt P9WGR1); assay: Mycobacterium tuberculosis InhA Inhibition Assay (Enzyme Assay); format: biochemical; conditions: 5 nM InhA, 50 μM DDCoA, 50 μM NADH, PIPES buffer pH 6.8, initial velocities of NADH consumption
T1 construct: made in house; host or cells: E. coli
Protocol: InhA is able to reduce 2-trans enoyl-CoA esters with concomitant oxidation of NADH to NAD^+. The assay format is based on the kinetic detection of NADH consumption.
Assay for InhA inhibition is carried out with mycobacterium recombinant protein expressed and purified form E. coli. Standard assay conditions for the determination of kinetic constants and inhibitors activity use 5 nM of InhA, 50 μM of Dodecenoyl-CoA synthesized and purified as described by Quémard et al (DDCoA) and 50 μM of NADH as substrates, and it is carried out in 30 mM PIPES buffer pH 6.8, containing 0.05% of BSA. […] Triclosan is used as positive control in every experiment. One μl of compounds is added to the wells containing 25 μl of the DDCoA+NADH mix, the reaction is started by adding 50 μl of the enzyme solution. Fluorescence from NADH is followed at room temperature during 20 minutes in a fluorescent plate reader (excitation at 340 nm; emission at 480 nm). IC50 values are determined using initial velocities of NADH consumption. • Quémard A, Sacchettini J C, Dessen A, et al. Enzymatic characterization of the target for isoniazid in Mycobacterium tuberculosis. Biochemistry 1995; 34:8235-41. Results of the Mycobacterium tuberculosis InhA Inhibition Assay (Enzyme Assay)

T1 sequence (P9WGR1 whole entry, looked up): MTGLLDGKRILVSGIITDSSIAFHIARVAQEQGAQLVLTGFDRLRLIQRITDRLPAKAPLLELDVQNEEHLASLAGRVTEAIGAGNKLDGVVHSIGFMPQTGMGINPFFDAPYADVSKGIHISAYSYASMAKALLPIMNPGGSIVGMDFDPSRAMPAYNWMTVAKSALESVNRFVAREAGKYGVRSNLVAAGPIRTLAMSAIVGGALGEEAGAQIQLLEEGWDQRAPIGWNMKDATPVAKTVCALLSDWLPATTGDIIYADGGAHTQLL

SMILES	MIC [1] [µM]	IC50 (InhA; IC50 value)	IC50 (InhA; read-out: IC50 value) [nM]
Cc1csc(C(C)(O)c2nnc(Nc3nn(Cc4csc(C)n4)c4ccccc34)s2)n1 (stereo not drawn) [Example 45, 1-(4-methyl-1,3-thiazol-2-yl)-1-[5-({1-[(2-methyl-1,3-thiazol-4-yl)methyl]-1H-indazol-3-yl}amino)-1,3,4-thiadiazol-2-yl]ethanol]	> 10	213 to 1060 nM	
Cc1csc(C(C)(O)c2nnc(Nc3ccn(Cc4cn5ccccc5n4)n3)s2)n1 (stereo not drawn) [Example 24, 1-(5-{[1-(imidazo[1,2-a]pyridin-2-ylmethyl)-1H-pyrazol-3-yl]amino}-1,3,4-thiadiazol-2-yl)-1-(4-methyl-1,3-thiazol-2-yl)ethanol]	4 to 10 (≈ 1.75 to 4.39 µg/mL)		114 to 228
Cc1cc(C)n(C(C)c2nnc(Nc3ccn(Cc4cnc(C)c(Cl)c4)n3)s2)n1 (stereo not drawn) [Example 8, N-{1-[(5-chloro-6-methyl-3-pyridinyl)methyl]-1H-pyrazol-3-yl}-5-[1-(3,5-dimethyl-1H-pyrazol-1-yl)ethyl]-1,3,4-thiadiazol-2-amine]	> 10		≤ 117
Cc1csc(C(C)c2nnc(Nc3ccn(Cc4ncccc4F)n3)s2)n1 (stereo not drawn) [Example 34, N-{1-[(3-fluoro-2-pyridinyl)methyl]-1H-pyrazol-3-yl}-5-[1-(4-methyl-1,3-thiazol-2-yl)ethyl]-1,3,4-thiadiazol-2-amine]	≤ 4		≤ 125
Cc1csc(C(C)(O)c2nnc(Nc3ccn(Cc4csc(N)n4)n3)s2)n1 (stereo not drawn) [Example 17, 1-[5-({1-[(2-amino-1,3-thiazol-4-yl)methyl]-1H-pyrazol-3-yl}amino)-1,3,4-thiadiazol-2-yl]-1-(4-methyl-1,3-thiazol-2-yl)ethanol]	> 10	238 to 1190 nM	
Cc1ccn(C(C)c2nnc(Nc3cc(C)n(Cc4ncccc4F)n3)s2)n1 (stereo not drawn) [Example 29, N-{1-[(3-fluoro-2-pyridinyl)methyl]-5-methyl-1H-pyrazol-3-yl}-5-[1-(3-methyl-1H-pyrazol-1-yl)ethyl]-1,3,4-thiadiazol-2-amine]	≤ 4	≤ 125 nM	
COc1c(C)cnc(Cn2ccc(Nc3nnc(C(C)(O)c4nc(C)cs4)s3)n2)c1C (stereo not drawn) [Example 31, 1-{5-[(1-{[3,5-dimethyl-4-(methyloxy)-2-pyridinyl]methyl}-1H-pyrazol-3-yl)amino]-1,3,4-thiadiazol-2-yl}-1-(4-methyl-1,3-thiazol-2-yl)ethanol]	> 10	219 to 1090 nM	
Cc1ccn(C(C)c2nnc(Nc3nn(Cc4csc(C)n4)c4ccccc34)s2)n1 (stereo not drawn) [Example 46, N-{5-[1-(3-methyl-1H-pyrazol-1-yl)ethyl]-1,3,4-thiadiazol-2-yl}-1-[(2-methyl-1,3-thiazol-4-yl)methyl]-1H-indazol-3-amine]	> 10	> 1150 nM	
Cc1csc(C(C)(O)c2nnc(Nc3ccn(Cc4[nH]ccc(=O)c4F)n3)s2)n1 (stereo not drawn) [Example 33, 3-fluoro-2-{[3-({5-[1-hydroxy-1-(4-methyl-1,3-thiazol-2-yl)ethyl]-1,3,4-thiadiazol-2-yl}amino)-1H-pyrazol-1-yl]methyl}-4(1H)-pyridinone]	> 10	> 1150 nM	
Cc1csc([C@](C)(O)c2nnc(Nc3ccn(Cc4csc(C)n4)n3)s2)n1 (single isomer, unassigned) [Example 43]		≤ 119 nM	
Cc1cc(C)n(C(C)c2nnc(Nc3ccn(Cc4ncc(Cl)cc4Cl)n3)s2)n1 (stereo not drawn) [Example 9, N-{1-[(3,5-dichloro-2-pyridinyl)methyl]-1H-pyrazol-3-yl}-5-[1-(3,5-dimethyl-1H-pyrazol-1-yl)ethyl]-1,3,4-thiadiazol-2-amine]	> 10		≤ 111
Cc1ccn(C(C)c2nnc(Nc3ccn(Cc4cccnc4F)n3)s2)n1 (stereo not drawn) [Example 10, N-{1-[(2-fluoro-3-pyridinyl)methyl]-1H-pyrazol-3-yl}-5-[1-(3-methyl-1H-pyrazol-1-yl)ethyl]-1,3,4-thiadiazol-2-amine]	> 10	130 to 260 nM	
Cc1csc([C@](C)(O)c2nnc(Nc3ccn(Cc4ncccc4F)n3)s2)n1 (single isomer, unassigned) [Example 41]	≤ 1	≤ 120 nM	
Cc1ccn(C(C)c2nnc(Nc3ccn(Cc4nccc(C)c4F)n3)s2)n1 (stereo not drawn) [Example 3, N-{1-[(3-fluoro-4-methyl-2-pyridinyl)methyl]-1H-pyrazol-3-yl}-5-[1-(3-methyl-1H-pyrazol-1-yl)ethyl]-1,3,4-thiadiazol-2-amine]	> 10		≤ 125
Cc1cc(C)n(C(C)c2nnc(Nc3ccn(Cc4ccccn4)n3)s2)n1 (stereo not drawn) [Example 5, 5-[1-(3,5-dimethyl-1H-pyrazol-1-yl)ethyl]-N-[1-(2-pyridinylmethyl)-1H-pyrazol-3-yl]-1,3,4-thiadiazol-2-amine]	> 10	263 to 1310 nM	
Cc1ccn(C(C)c2nnc(Nc3ccn(Cc4csc(C)n4)n3)s2)n1 (stereo not drawn) [Example 23, 5-[1-(3-methyl-1H-pyrazol-1-yl)ethyl]-N-{1-[(2-methyl-1,3-thiazol-4-yl)methyl]-1H-pyrazol-3-yl}-1,3,4-thiadiazol-2-amine]	4 to 10 (≈ 1.55 to 3.87 µg/mL)		129 to 259
Cc1cccc(Cn2ccc(Nc3nnc(C(C)n4nc(C)cc4C)s3)n2)n1 (stereo not drawn) [Example 1, 5-[1-(3,5-dimethyl-1H-pyrazol-1-yl)ethyl]-N-{1-[(6-methyl-2-pyridinyl)methyl]-1H-pyrazol-3-yl}-1,3,4-thiadiazol-2-amine]	> 10		≤ 127
Cc1cc(C)n(C(C)c2nnc(Nc3ccn(Cc4cccnc4F)n3)s2)n1 (stereo not drawn) [Example 7, 5-[1-(3,5-dimethyl-1H-pyrazol-1-yl)ethyl]-N-{1-[(2-fluoro-3-pyridinyl)methyl]-1H-pyrazol-3-yl}-1,3,4-thiadiazol-2-amine]	4 to 10 (≈ 1.59 to 3.98 µg/mL)		≤ 125
Cc1csc(C(C)(O)c2nnc(Nc3ccn(Cc4ncccc4C)n3)s2)n1 (stereo not drawn) [Example 14, 1-[5-({1-[(3-methyl-2-pyridinyl)methyl]-1H-pyrazol-3-yl}amino)-1,3,4-thiadiazol-2-yl]-1-(4-methyl-1,3-thiazol-2-yl)ethanol]	≤ 1	≤ 121 nM and 9.67 nM	
Cc1csc(C(C)(O)c2nnc(Nc3ccn(Cc4c(C)noc4C)n3)s2)n1 (stereo not drawn) [Example 26, 1-[5-({1-[(3,5-dimethyl-4-isoxazolyl)methyl]-1H-pyrazol-3-yl}amino)-1,3,4-thiadiazol-2-yl]-1-(4-methyl-1,3-thiazol-2-yl)ethanol]	> 10	> 1200 nM	
CCOc1ncccc1Cn1ccc(Nc2nnc(C(C)n3nc(C)cc3C)s2)n1 (stereo not drawn) [Example 11, 5-[1-(3,5-dimethyl-1H-pyrazol-1-yl)ethyl]-N-(1-{[2-(ethyloxy)-3-pyridinyl]methyl}-1H-pyrazol-3-yl)-1,3,4-thiadiazol-2-amine]	> 10	> 1180 nM	
Cc1csc([C@@](C)(O)c2nnc(Nc3ccn(Cc4csc(C)n4)n3)s2)n1 (single isomer, unassigned) [Example 44]	> 10	238 to 1190 nM	
Cc1cc(C)n(C(C)c2nnc(Nc3ccn(Cc4cccnc4)n3)s2)n1 (stereo not drawn) [Example 4, 5-[1-(3,5-dimethyl-1H-pyrazol-1-yl)ethyl]-N-[1-(3-pyridinylmethyl)-1H-pyrazol-3-yl]-1,3,4-thiadiazol-2-amine]	> 10		≤ 131
Cc1csc(C(C)(O)c2nnc(Nc3ccn(Cc4cc(C)on4)n3)s2)n1 (stereo not drawn) [Example 22, 1-[5-({1-[(5-methyl-3-isoxazolyl)methyl]-1H-pyrazol-3-yl}amino)-1,3,4-thiadiazol-2-yl]-1-(4-methyl-1,3-thiazol-2-yl)ethanol]	4 to 10 (≈ 1.61 to 4.03 µg/mL)		124 to 248
Cc1csc(C(C)(O)c2nnc(Nc3ccn(Cc4c(F)cncc4F)n3)s2)n1 (stereo not drawn) [Example 32, 1-[5-({1-[(3,5-difluoro-4-pyridinyl)methyl]-1H-pyrazol-3-yl}amino)-1,3,4-thiadiazol-2-yl]-1-(4-methyl-1,3-thiazol-2-yl)ethanol]	> 10	> 1150 nM	
Cc1csc(C(C)(O)c2nnc(Nc3cc(C)n(Cc4ncccc4F)n3)s2)n1 (stereo not drawn) [Example 28, 1-[5-({1-[(3-fluoro-2-pyridinyl)methyl]-5-methyl-1H-pyrazol-3-yl}amino)-1,3,4-thiadiazol-2-yl]-1-(4-methyl-1,3-thiazol-2-yl)ethanol]	≤ 4	≤ 116 nM	
Cc1csc(C(C)(O)c2nnc(Nc3ccn(Cc4nccc5ccccc45)n3)s2)n1 (stereo not drawn) [Example 19, 1-(5-{[1-(1-isoquinolinylmethyl)-1H-pyrazol-3-yl]amino}-1,3,4-thiadiazol-2-yl)-1-(4-methyl-1,3-thiazol-2-yl)ethanol]	4 to 10 (≈ 1.8 to 4.5 µg/mL)		≤ 111
Cc1csc(C(C)(O)c2nnc(Nc3ccn(Cc4ncccc4O)n3)s2)n1 (stereo not drawn) [Example 16, 2-{[3-({5-[1-hydroxy-1-(4-methyl-1,3-thiazol-2-yl)ethyl]-1,3,4-thiadiazol-2-yl}amino)-1H-pyrazol-1-yl]methyl}-3-pyridinol]	> 10		
